Test results reported in ChEMBL document CHEMBL3885881, “DrugMatrix”.

Species: Rattus norvegicus
Test: DrugMatrix - Regimen: Daily Repeat
Assay type: toxicity, organism-based, Sprague-Dawley
Parameters: regimen Daily Repeat, gender Male, age 6-8 weeks
Settings: in vivo, po, route oral GAVAGE, vehicle 100 % WATER; for ABSOLUTE BASOPHIL / ABSOLUTE EOSINOPHIL / ABSOLUTE LYMPHOCYTE / ABSOLUTE MONOCYTE / ABSOLUTE SEGMENTED NEUTROPHIL / BASOPHIL / EOSINOPHIL / ERYTHROCYTE COUNT / HEMATOCRIT / HEMOGLOBIN / LEUKOCYTE COUNT / LYMPHOCYTE / MEAN CORPUSCULAR HEMOGLOBIN / MEAN CORPUSCULAR HEMOGLOBIN CONCENTRATION / MEAN CORPUSCULAR VOLUME / MONOCYTE / NEUTROPHIL / NUCLEATED RED BLOOD CELLS / PLATELET COUNT: tissue Blood; for ALANINE AMINOTRANSFERASE / ALBUMIN / ALKALINE PHOSPHATASE / ASPARTATE AMINOTRANSFERASE / BLOOD UREA NITROGEN / CARBON DIOXIDE / CHLORIDE / CHOLESTEROL / CREATINE PHOSPHOKINASE / CREATININE / GLUCOSE / LACTATE DEHYDROGENASE / LIPASE / PHOSPHORUS / POTASSIUM / SODIUM / TOTAL BILIRUBIN / TOTAL PROTEIN / URIC ACID: tissue Plasma
[1] = 19.5 mg/kg, 120 h, dose level Low, time 5 day
[2] = 75 mg/kg, 72 h, dose level High, time 3 day
[3] = 75 mg/kg, 120 h, dose level High, time 5 day

**Q.** Which results are given for `CN1CCC[C@H]1c1cccnc1` [NICOTINE]?
**A.** ABSOLUTE BASOPHIL [1]: 0 CELLS/uL; ABSOLUTE EOSINOPHIL [1]: 37.67 CELLS/uL; ABSOLUTE LYMPHOCYTE [1]: 10299.33 CELLS/uL; ABSOLUTE MONOCYTE [1]: 0 CELLS/uL; ABSOLUTE SEGMENTED NEUTROPHIL [1]: 1096.33 CELLS/uL; BASOPHIL [1]: 0%; EOSINOPHIL [1]: 0.33%; ERYTHROCYTE COUNT [1]: 5.67 x10E6/uL; HEMATOCRIT [1]: 35.63%; HEMOGLOBIN [1]: 14.17 G/DL; LEUKOCYTE COUNT [1]: 11.43 x10E3/uL; LYMPHOCYTE [1]: 90.33%; MEAN CORPUSCULAR HEMOGLOBIN [1]: 25 pg; MEAN CORPUSCULAR HEMOGLOBIN CONCENTRATION [1]: 39.77 G/DL; MEAN CORPUSCULAR VOLUME [1]: 62.83 fL; MONOCYTE [1]: 0%; NEUTROPHIL [1]: 9.33%; NUCLEATED RED BLOOD CELLS [1]: 0.33 /100WBC; PLATELET COUNT [1]: 1167.67 x10E3/uL; ALANINE AMINOTRANSFERASE [1]: 54.67 u/L; ALBUMIN [1]: 4.17 G/DL; ALKALINE PHOSPHATASE [1]: 397.33 u/L; ASPARTATE AMINOTRANSFERASE [1]: 83.67 u/L; BLOOD UREA NITROGEN [1]: 12 mg/dL; CARBON DIOXIDE [1]: 34.33 mmol/L; CHLORIDE [1]: 101 MEQ/L; CHOLESTEROL [1]: 62.33 mg/dL; CREATINE PHOSPHOKINASE [1]: 196.67 u/L; CREATININE [1]: 0.21 mg/dL; GLUCOSE [1]: 146.67 mg/dL; LACTATE DEHYDROGENASE [1]: 207.67 u/L; LIPASE [1]: 11.67 u/L; PHOSPHORUS [1]: 11.63 mg/dL; POTASSIUM [1]: 6.48 MEQ/L; SODIUM [1]: 143.9 MEQ/L; TOTAL BILIRUBIN [1]: 0.23 mg/dL; TOTAL PROTEIN [1]: 6.03 G/DL; URIC ACID [1]: 1.2 mg/dL; ABSOLUTE BASOPHIL [2]: 0 CELLS/uL; ABSOLUTE EOSINOPHIL [2]: 0 CELLS/uL; ABSOLUTE LYMPHOCYTE [2]: 13562.33 CELLS/uL; ABSOLUTE MONOCYTE [2]: 210.33 CELLS/uL; ABSOLUTE SEGMENTED NEUTROPHIL [2]: 827.33 CELLS/uL; BASOPHIL [2]: 0%; EOSINOPHIL [2]: 0%; ERYTHROCYTE COUNT [2]: 5.82 x10E6/uL; HEMATOCRIT [2]: 37.17%; HEMOGLOBIN [2]: 14.57 G/DL; LEUKOCYTE COUNT [2]: 14.6 x10E3/uL; LYMPHOCYTE [2]: 93%; MEAN CORPUSCULAR HEMOGLOBIN [2]: 25.03 pg; MEAN CORPUSCULAR HEMOGLOBIN CONCENTRATION [2]: 39.2 G/DL; MEAN CORPUSCULAR VOLUME [2]: 63.87 fL; MONOCYTE [2]: 1.33%; NEUTROPHIL [2]: 5.67%; NUCLEATED RED BLOOD CELLS [2]: 0.33 /100WBC; PLATELET COUNT [2]: 1370 x10E3/uL; ALANINE AMINOTRANSFERASE [2]: 58.67 u/L; ALBUMIN [2]: 4.07 G/DL; ALKALINE PHOSPHATASE [2]: 398 u/L; ASPARTATE AMINOTRANSFERASE [2]: 92 u/L; BLOOD UREA NITROGEN [2]: 11 mg/dL; CARBON DIOXIDE [2]: 25.67 mmol/L; CHLORIDE [2]: 101.33 MEQ/L; CHOLESTEROL [2]: 64 mg/dL; CREATINE PHOSPHOKINASE [2]: 288.33 u/L; CREATININE [2]: 0.13 mg/dL; GLUCOSE [2]: 150.33 mg/dL; LACTATE DEHYDROGENASE [2]: 290.67 u/L; LIPASE [2]: 10.33 u/L; PHOSPHORUS [2]: 11.73 mg/dL; POTASSIUM [2]: 6.07 MEQ/L; SODIUM [2]: 143.23 MEQ/L; TOTAL BILIRUBIN [2]: 0.17 mg/dL; TOTAL PROTEIN [2]: 5.73 G/DL; URIC ACID [2]: 1.6 mg/dL; ABSOLUTE BASOPHIL [3]: 0 CELLS/uL; ABSOLUTE EOSINOPHIL [3]: 0 CELLS/uL; ABSOLUTE LYMPHOCYTE [3]: 9380.67 CELLS/uL; ABSOLUTE MONOCYTE [3]: 97.67 CELLS/uL; ABSOLUTE SEGMENTED NEUTROPHIL [3]: 455 CELLS/uL; BASOPHIL [3]: 0%; EOSINOPHIL [3]: 0%; ERYTHROCYTE COUNT [3]: 6.33 x10E6/uL; HEMATOCRIT [3]: 38.6%; HEMOGLOBIN [3]: 15.23 G/DL; LEUKOCYTE COUNT [3]: 9.93 x10E3/uL; LYMPHOCYTE [3]: 94.33%; MEAN CORPUSCULAR HEMOGLOBIN [3]: 24.1 pg; MEAN CORPUSCULAR HEMOGLOBIN CONCENTRATION [3]: 39.5 G/DL; MEAN CORPUSCULAR VOLUME [3]: 61 fL; MONOCYTE [3]: 1%; NEUTROPHIL [3]: 4.67%; NUCLEATED RED BLOOD CELLS [3]: 0.33 /100WBC; PLATELET COUNT [3]: 1256.67 x10E3/uL; ALANINE AMINOTRANSFERASE [3]: 64.67 u/L; ALBUMIN [3]: 4.53 G/DL; ALKALINE PHOSPHATASE [3]: 383 u/L; ASPARTATE AMINOTRANSFERASE [3]: 91 u/L; BLOOD UREA NITROGEN [3]: 12.67 mg/dL; CARBON DIOXIDE [3]: 33 mmol/L; CHLORIDE [3]: 101.67 MEQ/L; CHOLESTEROL [3]: 71.67 mg/dL; CREATINE PHOSPHOKINASE [3]: 315 u/L; CREATININE [3]: 0.22 mg/dL; GLUCOSE [3]: 140.33 mg/dL; LACTATE DEHYDROGENASE [3]: 131.33 u/L; LIPASE [3]: 9.67 u/L; PHOSPHORUS [3]: 9.5 mg/dL; POTASSIUM [3]: 5.03 MEQ/L; SODIUM [3]: 147.7 MEQ/L; TOTAL BILIRUBIN [3]: 0.17 mg/dL; TOTAL PROTEIN [3]: 6.6 G/DL; URIC ACID [3]: 0.77 mg/dL
